Patent publication US4913907A, “Porphycene anti-cancer agents and treatment methods” (Cytopharm, Inc., priority 1988, dated 1990)
Where two headings read alike, the source gives them in different places.

Columns and labels:
[1] = cited from earlier work
[2] = Tissue analysis: recovery of TPP from serum and tissues after injection; format: in vivo, mice; conditions: 2 mg/kg; for concentration at 3 h / concentration at 24 h: mouse, iv, average of 6 mice, maximum deviation ±20%; for concentration at 3 h: 3 hours after injection; for concentration at 24 h: 24 hours after injection
Method: At each of 3 hours and 24 hours after injection, six mice were sacrificed by exposure to ether vapor, and the serum or specific tissue were removed. About 2 mL of blood was taken intracardially and centrifuged for 15 minutes at 3,000 rpm to remove the erythrocytes. The serum was collected, diluted with 2% aqueous SDS and assayed for TPP content spectrophotofluorimetrically (λex =560 nm). The fluorescence emitted in the 580-740 nm interval was converted into TPP concentration by interpolation with a calibration plot.
The tumor and predetermined normal tissues were removed, washed twice with PBS, and a weighed amount of tissue (approximately 200 mg) was finely minced and homogenized in a Potter vessel with 4 mL chloroform. The dispersion was centrifuged at 3,000 rpm for 15 minutes; the supernatant was collected and its TPP content was estimated spectrophotofluorimetrically as described above. Rehomogenization of the sediment under the same conditions gave less than 3% of the TPP extracted in the original step. […]
The recovery of TPP from serum and various tissues of the tumor-bearing mice at 3 hours and 24 hours after injection are shown in Table 1. The samples from each animal were analyzed separately, and are table values represent the average recovery data from the single tissues of 6 mice. The maximum deviation from the reported values was ±20%.

MS-2 fibrosarcoma = assay: Phototherapy of tumor-bearing mice, tumor response; format: in vivo, Female Balb/c mice
Method: By the seventh day after transplantation, the tumors had reached a diameter of approximately 0.8 cm.
(§1) Each mouse was intravenously injected with 2 mg./kg. of 2,7,12,17-tetra-n-propylporphycene (TPP) incorporated into small umilamellar liposomes of dipalmitoyl-phosphatidylcholine (DPPC), prepared according to the procedures of Example 2, on the seventh day after transplantation. At this time the diameter of the tumor was approximately 0.8 cm.
(§2) 24 hours after TPP injection, the tumor area was exposed to 600-690 nm. light isolated by optical filtration from the emission of a 250 W quartz-halogen lamp through a set of optical filters (Teclas, Lugano, Switzerland). The light beam was focused into a bundle of optical fibers having an external diameter of 6 mm. The tip of the fiber was kept at a distance of 1 cm from the tissue surface. The lamp was operated at a dose-rate of 230 mW/cm^2, and the total delivered light dose was 150 J/cm^2 or 300 J/cm^2.

normal skin = assay: Phototherapy, photoinduced damage of irradiated normal skin; format: in vivo, Female Balb/c mice
Method: as §1, §2
An equal area of normal skin on the left hind leg was irradiated in each mouse immediately after tumor irradiation using an identical protocol.

[3] = Distribution and clearance in a mouse model (statement in the description); format: in vivo
Solubility = format: physicochemical
[4] = brain, read-out: Recovery, brain
[5] = liver, read-out: Recovery, liver
[6] = muscle, read-out: Recovery, muscle
[7] = tumor, read-out: Recovery, tumor
[8] = 2 mg/kg i.v., 300 J/cm^2 at 24 hours after TPP injection

In the case of `CCCC1=Cc2nc1ccc1[nH]c(cc1CCC)c1nc(ccc3[nH]c2cc3CCC)C(CCC)=C1` [TPP, 2,7,12,17-tetra-n-propylporphycene], the “absorption above 620 nm” value [1] is given as “high absorption above 620 nm”, the concentration at 3 h [2, 4] is given as under 10 ng/g and the concentration at 24 h [2, 4] is given as under 10 ng/g. It also gave a concentration at 3 h ([2]; kidneys, read-out: Recovery, kidneys) of 1250 ng/g, a concentration at 3 h [2, 5] of 13000 ng/g and a concentration at 24 h [2, 5] of 11100 ng/g. The concentration at 3 h [2, 6] was 140 ng/g, the concentration at 24 h [2, 6] was 90 ng/g and the concentration at 24 h ([2]; serum, read-out: Recovery, serum) was 25600 ng/mL. The concentration at 3 h ([2]; skin, read-out: Recovery, skin) was 290 ng/g, the concentration at 24 h ([2]; skin, read-out: Recovery, skin) was 440 ng/g and the concentration at 24 h ([2]; spleen, read-out: Recovery, spleen) was 2940 ng/g. For the same compound, the concentration at 3 h [2, 7] was 690 ng/g, the concentration at 24 h [2, 7] was 1500 ng/g and the “recovery from the tumor” value ([2]; tumor tissue, time not stated) was “approximately 1 μg/g”. For the same compound, the “onset of tumor necrosis” value (MS-2 fibrosarcoma; 2 mg/kg i.v. in DPPC liposomes, 300 J/cm^2 of 600-690 nm light at 24 hours after TPP injection) was “massive tumor necrosis”, the tumor necrosis (MS-2 fibrosarcoma; 2 mg/kg i.v., 150 J/cm^2 of red light at 24 hours after TPP injection) was “equally deep necrosis, however less extensive” and the “eschar formation complete within” value (MS-2 fibrosarcoma; [8]) was at most 3 days. For the same compound, the “time until depth of necrosis reached bone” value (MS-2 fibrosarcoma; [8]) was “about 7 days”, the “erythema, disappearance” value (normal skin; irradiated TPP-treated mice) was “disappeared within about one week” and the “photoinduced damage at the level of the normal skin” value (normal skin; irradiated TPP-treated mice, most animals, mainly erythema) was “developed some photoinduced damage at the level of the normal skin”. The “erythema, diameter” value (normal skin; irradiated TPP-treated mice, generally) was “less than 0.3 cm”, the “photosensitivity at the irradiated normal skin” value (normal skin; left hind leg, identical irradiation protocol) was “Some photosensitivity was also observed” and the “tumor uptake as compared to skin or muscle tissue” value ([3]; 24 hours post-injection) was “concentrate preferentially in tumor tissue as compared to skin or muscle tissue”. For the same compound, the drug clearance route ([3]; mouse model) was “via the liver rather than by the kidneys” and the “uptake by the brain” value ([3]; mouse model) was “little or no porphycene uptake by the brain”.

In the case of `C1=Cc2nc1ccc1ccc([nH]1)c1nc(ccc3ccc2[nH]3)C=C1` [porphycene], the “absorption above 620 nm” value [1] is listed as “high absorption above 620 nm” and the “solubility in water and pharmaceutically suitable solvents” value (Solubility) is listed as “not soluble in water and pharmaceutically suitable solvents”.
